Experimental data published in PubChem BioAssay (NCI).
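Values below derive from 48-hour exposures of cells grown in 96-well plates, with endpoints linearly interpolated between the two concentrations bracketing the appropriate inhibition level. TGI: total growth inhibition.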

Columns and labels:
Assay in all cases: growth of human tumour cells (NCI), 48 h
[1] = system: 786-0 renal
[2] = system: A549 NSCLC
[3] = system: ACHN renal
[4] = system: CAKI-1 renal
[5] = system: CCRF-CEM leukemia
[6] = system: COLO 205 colon
[7] = system: DLD-1 colon
[8] = system: DMS 114 small cell lung
[9] = system: DMS 273 small cell lung
[10] = system: EKVX NSCLC
[11] = system: HCC-2998 colon
[12] = system: HCT-15 colon
[13] = system: HL-60(TB) leukemia
[14] = system: HOP-62 NSCLC
[15] = system: HOP-92 NSCLC
[16] = system: HT29 colon
[17] = system: IGROV1 ovarian
[18] = system: K-562 leukemia
[19] = system: KM12 colon
[20] = system: KM20L2 colon
[21] = system: LOX IMVI melanoma
[22] = system: LXFL 529 NSCLC
[23] = system: M14 melanoma
[24] = system: M19-MEL melanoma
[25] = system: MALME-3M melanoma
[26] = system: MOLT-4 leukemia
[27] = system: NCI-H23 lung
[28] = system: NCI-H460 lung
[29] = system: NCI-H522 lung
[30] = system: OVCAR-3 ovarian
[31] = system: OVCAR-4 ovarian
[32] = system: OVCAR-5 ovarian
[33] = system: OVCAR-8 ovarian
[34] = system: RPMI-8226 leukemia
[35] = system: RXF 393 renal
[36] = system: SF-268 CNS
[37] = system: SK-MEL-2 melanoma
[38] = system: SK-MEL-28 melanoma
[39] = system: SK-MEL-5 melanoma
[40] = system: SK-OV-3 ovarian
[41] = system: SN12C renal
[42] = system: SNB-19 CNS
[43] = system: SNB-75 CNS
[44] = system: SW-620 colon
[45] = system: TK-10 renal
[46] = system: UACC-257 melanoma
[47] = system: UACC-62 melanoma
[48] = system: UO-31 renal
[49] = system: XF 498 CNS
[50] = system: A498 renal
[51] = system: HCT-116 colon
[52] = system: HOP-18 NSCLC
[53] = system: NCI-H226 lung
[54] = system: SF-295 CNS
[55] = system: SF-539 CNS
[56] = system: SNB-78 CNS
[57] = system: U251 CNS

Measured: TGI

C1=CC(=NN=P(c2ccccc2)(c2ccccc2)c2ccccc2)C=C1
not listed: [50] | [51] | [52] | [53] | [54] | [55] | [56] | [57]
> 100 µM: all other assays above

COc1ccc(N2C(=O)C3C=CC(n4[nH]c(=O)n(Cc5ccccc5)c4=O)CC3C2=O)cc1 (stereo not given)
not listed: [31]
> 100 µM: all other assays above
